EP0401715B1, “Aminoketone compounds” (priority 1989, dated 1990)
Counter-ions that a name gives are not always drawn. Like-named read-outs stand apart in the source and are kept apart here.

Biological target: T1, cholinesterase (Rattus norvegicus, UniProt P37136)
T1 construct: The S₁ fraction of a cerebral cortex homogenate from male Wistar rats was used as the cholinesterase source; from tissue; host or cells: S1 fraction of cerebral cortex homogenate, male Wistar rats
Test: Anticholinesterase activity using (acetyl-[³H])-acetylcholine as substrate
Format: biochemical, male Wistar rats
Protocol: The anticholinesterase activity of the compound of the invention was evaluated using (acetyl-[³H])-acetylcholine. The S₁ fraction of a cerebral cortex homogenate from male Wistar rats was used as the cholinesterase source, (acetyl-[³H])-acetylcholine as the substrate and the test compound of the invention as the test substance. The incubation was carried out for 30 minutes and after the reaction was terminated, the system was shaken with a toluene scintillator to thereby transfer [³H]-acetic acid into the toluene layer. The radioactivity in the toluene layer was then measured with a liquid scintillation counter to estimate the anticholinesterase activity of the test compound.

T1 sequence (P37136 32-614): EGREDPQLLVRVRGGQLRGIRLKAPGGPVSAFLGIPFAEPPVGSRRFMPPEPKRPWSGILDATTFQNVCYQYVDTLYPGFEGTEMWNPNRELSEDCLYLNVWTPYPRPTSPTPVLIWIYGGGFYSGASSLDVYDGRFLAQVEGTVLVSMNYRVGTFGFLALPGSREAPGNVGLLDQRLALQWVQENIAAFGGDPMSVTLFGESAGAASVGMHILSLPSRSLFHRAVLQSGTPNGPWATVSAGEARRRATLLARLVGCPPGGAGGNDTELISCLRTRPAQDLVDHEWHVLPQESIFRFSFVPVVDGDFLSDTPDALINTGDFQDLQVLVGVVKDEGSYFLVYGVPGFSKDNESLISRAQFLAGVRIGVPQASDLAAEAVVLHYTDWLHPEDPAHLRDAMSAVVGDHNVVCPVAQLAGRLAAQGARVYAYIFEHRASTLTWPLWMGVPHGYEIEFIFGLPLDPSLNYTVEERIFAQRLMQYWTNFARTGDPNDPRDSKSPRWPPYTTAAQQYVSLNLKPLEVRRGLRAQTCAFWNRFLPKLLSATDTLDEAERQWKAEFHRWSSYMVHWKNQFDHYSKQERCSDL

Row | SMILES | IC50 [nM] | IC50 (S₁ fraction of a cerebral cortex homogenate from male Wistar rats as cholinesterase source, incubation 30 minutes, read-out: Anticholinesterase activity, IC₅₀) [nM]
1 | CCN(CCCCCC(=O)c1ccc(N2CCCC2)cc1)Cc1ccccc1 [Example 4-2, N-Ethyl-N-(phenylmethyl)-N-[6-(4-pyrrolidinophenyl)-6-oxohexyl]amine fumarate] | 310 | 
2 | CCN(CCCCCC(=O)c1ccc(N2CCCC2)cc1)Cc1ccccc1OC [Example 4-3, N-Ethyl-N-[(2-methoxyphenyl)methyl]-N-[6-(4-pyrrolidinophenyl)-6-oxohexyl]amine fumarate] |  | 50
